Test results reported in patent US20060172964A1, “Methods for reducing amyloid beta levels” (priority 2005, published 2006).

Experiments:
Assay type in all cases: cell-based, human
Aβ40 [1] = test: Sandwich ELISA of secreted Aβ in conditioned media of H4-APP-FL cells
Protocol: (§1) We employed naïve H4 human neuroglioma (H4) cells and H4 cells stably-transfected to express either the APP-FL, or APP-C99. Peptide APP-C99 is the product of β-secretase, which, therefore, contains α- and γ-, but not β-cleavage sites. This cell line provides a valid system to assess whether any effects on APP processing is dependent on γ-secretase-mediated APP processing and independent of β-secretase-mediated APP processing. All cell lines were cultured in DMEM (high glucose) containing 9% heat-inactivated fetal calf serum, 100 units/ml penicillin, 100 μg/ml streptomycin, and 2 mM L-glutamine. Stably transfected H4 cells were additionally supplemented with 200 μg/ml G418.
Small interfering RNA (siRNA) duplexes were designed and obtained from Dharmacon Research, Inc. (Lafayette, CO 80026) against human APBA1, the gene encoding X11α (5′-GGATGCTCAGCTGATTGCA-3′; SEQ ID NO:2), APBA2, the gene encoding X11β (5′-GGTGAAGCTCAACATTGTC-3′; SEQ ID NO:3). Scrambled siRNA (5′-[…]-3α; SEQ ID NO:4) (29) was used as the control siRNA. siRNAs were transfected into cells by using electroporation (AMAXA, Gaithersburg, Md.). […]
(§2) Following the treatment with saline, electroporation, control siRNA, APBA1 siRNA or APBA2 siRNA, conditioned media was collected, and secreted Aβ was measured by a Sandwich ELISA assay as described by Xie et al. (30). […] Plates were then developed with TMB reagent and well absorbance measured at 450 nm. Aβ levels in test samples were determined by comparison with signal from unconditioned media spiked with known quantities of Aβ40 and Aβ42.
Next, we measured Aβ levels in the conditioned media, 48 hours after treatment with control siRNA, APBA1 siRNA or γ-secretase inhibitor DAPT. Since Aβ42 was too low to be detected in many samples, we only present the changes in Aβ40 production from these experiments.
Next, we measured Aβ levels in the conditioned media 48 hours following treatments with control siRNA, APBA2 siRNA or γ-secretase inhibitor DAPT.

[2] = tested on: APP-FL, APP-C99 and APP-C83; test: Western blot analysis of APP processing in H4-APP-FL cells; conditions: for protein levels of APP-FL / increase in the ratio of APP-C99 to APP-FL / increase in the ratio of APP-C83 to APP-FL: siRNA 48 hours, DAPT 250 nM
Protocol: as §1
Small interfering RNA (siRNA) duplexes were designed and obtained from Dharmacon Research, Inc. (Lafayette, CO 80026) against human APBA1, the gene encoding X11α (5′-GGATGCTCAGCTGATTGCA-3′; SEQ ID NO:2), APBA2, the gene encoding X11β (5′-GGTGAAGCTCAACATTGTC-3′; SEQ ID NO:3). Scrambled siRNA (5′-[…]-3α; SEQ ID NO:4) (29) was used as the control siRNA. siRNAs were transfected into cells by using electroporation (AMAXA, Gaithersburg, Md.). We mixed 1 million cells, 100 μl AMAXA electroporation transfection solution and 10 μl 20 μM siRNA together, then we employed C-9 program in the AMAXA electroporation device for the cell transfection. The transfected cells then were placed in one of the six-well plate containing 1.5 ml cell culture media. The cells were harvested 48 hours after siRNA treatments. DAPT (250 nM, 18 hours treatment time), a γ-secretase inhibitor, was employed in the experiments as a positive control.
(§3) Cell pellets were detergent-extracted on ice using immunoprecipitation buffer (10 mM Tris-HCl, pH 7.4, 150 mM NaCl, 2 mM EDTA, 0.5% Nonidet P-40) plus protease inhibitors (1 μg/ml aprotinin, 1 μg/ml leupeptin, 1 μg/ml pepstatin A). The lysates were collected, centrifuged at 12,000 rpm for 10 min, and quantified for total proteins by the BCA protein assay kit (Pierce, Rockford, Ill.).
Western blot analysis was performed as described by Xie et al. (30). Briefly, 40 μg of total protein of each sample was subjected to SDS-polyacrylamide gel electrophoresis using 4-20% gradient Tris/glycine gels under reducing conditions (Invitrogen, Carlsbad, Calif.). Next, proteins were transferred to a polyvinylidene difluoride membrane (Bio-Rad, Hercules, Calif.) using a semi-dry electrotransfer system (Amersham Biosciences, San Francisco, Calif.). Nonspecific proteins were blocked using 5% non-fat dry milk in TBST for 1.5 h. Blots were then incubated with a primary antibody, followed by a secondary antibody (horseradish peroxidase-conjugated anti-rabbit antibody 1:10,000; Pierce, Rockford, Ill.). Blots were washed with 1× TBST for 30 min between steps. Antibody H-265 (1:200, Santa Cruz Biotechnology, Santa Cruz, Calif.) was used to recognize X11α (105 kDa), antibody N-20 (1:100, Santa Cruz Biotechnology, Santa Cruz, Calif.) was used to detect X11β (135 kDa). Antibody A8717 (1:1,000, Sigma, St. Louis, Mo.) was used to visualize APP-FL (110 kDa), […] in the Western blot analysis. The intensity of signals was analyzed using an image program (NIH Image 1.62). We quantified the Western blots as follows. We used the levels of β-actin to normalize the levels of X11α, X11β, APP-FL and APP-CTF (i.e., determining the ratio of X11α amount to β-actin amount) to control for loading differences in total protein amounts. We present the changes in the protein levels of X11α, X11β, APP-FL, APP-C99 and APP-C83 in the cells treated with APBA1 or APBA2 siRNA as the percentage of those in the cells treated with control siRNA.
We next assessed the effects of RNAi-mediated silencing of APBA1 on APP processing in H4-APP-FL cells by measuring protein levels of APP-FL, APP-C99 and APP-C83 following APBA1 siRNA treatment. […]

[3] = tested on: APP-FL, APP-C99 and APP-C83; test: Western blot analysis of APP processing in H4-APP-C99 cells; conditions: data not shown
Protocol: as §1, with “G418. […]” for “G418.”
as §3
Western blot analysis was performed as described by Xie et al. (30). […] The intensity of signals was analyzed using an image program (NIH Image 1.62). We quantified the Western blots as follows. […]
We next assessed the effects of RNAi-mediated silencing of APBA1 on processing of APP-C99. […]

Aβ40 [4] = test: Sandwich ELISA of secreted Aβ in conditioned media of H4-APP-C99 cells; conditions: data not shown
Protocol: as §1, with “G418. […]” for “G418.”
as §2
We next measured Aβ levels in the conditioned media 48 hours after treatment with either control siRNA or APBA1 siRNA in the H4-APP-C99 cells. […]

Molecule	Aβ levels (Aβ40) in conditioned media (Aβ40 [1]; FIG. 1E, 48 hours after treatment, control siRNA treatment 116 pg/ml) [pg/mL]	Aβ production (Aβ40) in conditioned media (Aβ40 [1]; FIG. 2E, 48 hours following treatment, control siRNA 109 pg/ml) [pg/mL]	protein levels of APP-FL ([2]; APBA1 experiment (FIG. 1A), vs control siRNA)	protein levels of APP-FL ([2]; APBA2 experiment (FIG. 2A), vs control siRNA)	increase in the ratio of APP-C99 to APP-FL ([2]; APBA2 experiment, FIG. 2C, vs control treatment) [%]	increase in the ratio of APP-C83 to APP-FL ([2]; APBA2 experiment, FIG. 2D, vs control treatment) [%]	increase in the ratio of APP-C99 to APP-FL ([2]; FIG. 1C, vs control siRNA, normalized to β-actin) [%]	increase in the ratio of APP-C83 to APP-FL ([2]; FIG. 1D, vs control siRNA, normalized to β-actin) [%]	effect on APP processing as compared to saline treatment [3]	effect on Aβ levels as compared to saline treatment (Aβ40 [1]; data not shown)	effect on Aβ levels as compared to saline treatment (Aβ40 [4])	effect on APP processing as compared to saline treatment ([2]; data not shown)
C[C@H](NC(=O)Cc1cc(F)cc(F)c1)C(=O)N[C@H](C(=O)OC(C)(C)C)c1ccccc1 [DAPT]	70	48	no significant differences	no significant difference	270	245	310	250				
control siRNA: Scrambled siRNA (5′-AAATGTGTGTACGTCTCCTCC-3; SEQ ID NO:4) used as the control siRNA (listed as DNA, chemistry not given here)									did not affect APP processing or alter Aβ levels	did not affect APP processing or alter Aβ levels	did not affect APP processing or alter Aβ levels	did not affect APP processing or alter Aβ levels
